From patent US20100203033A1, “Kits, formulations and solutions having enzymatically- permissive amounts of visualization agents and uses thereof” (priority 2007, published 2010)
Blank lines part the entries; values can stand above or below the molecule they belong to.

Experiments:
[1] = molecular target: T1, thrombin (Homo sapiens, UniProt P00734); assay: Drop test model: migration length of fibrin sealant on a slanted surface (clotting kinetics); format: biochemical; parameters: 5 ml of a thrombin solution 5 folds diluted (final: 200 IU/ml)
Description: (§1) Human thrombin was mixed with different dyes to final dye concentrations of 0.005-0.2%. The influence of dyes on clotting kinetics was tested using the drop test model. Briefly, measurements of fibrin clotting kinetics were performed on an inclined plane in a device powered by a Nitrogen pressure of 7×10^5 Pa. In each experiment 5 ml of Biological Active Component (BAC) and 5 ml of a thrombin solution 5 folds diluted (final: 200 IU/ml) (in 40 mM CaCl2) were pumped into a separate syringe. […] These two solutions were released (about ⅛ of each) simultaneously, and a mixed drop falls onto a slanted surface. The drop leaks down the slope until a clot is formed. The distance traveled by the drops was recorded on a millimetric paper sheet placed on the slanted surface. […] The migration lengths of the fibrin sealant with the different formulations are listed below in Table 2.

[2] = molecular target: T1, thrombin; assay: Drop test model after freeze and thaw (F&T) of dyed thrombin; format: biochemical; parameters: 5 ml of a thrombin solution 5 folds diluted (final: 200 IU/ml)
Description: as §1
Human thrombin was formulated with methylene blue, crystal violet, bromothymol blue or riboflavin at final concentrations of 0.005-0.1%. The different formulations were fast frozen to −35° C. and then thawed. The effect of the freeze and thaw procedure on thrombin clotting activity was evaluated using the drop test model (migration time assay as in Example 2).

[3] = Solubility of indigo carmine in thrombin solution by visual inspection; format: physicochemical
Description: The present example was aimed to determine the maximal solubility of indigo carmine in the thrombin component of the fibrin sealant. Thrombin final container (Omrix, 1,000 IU/ml, 5 ml) was mixed with 1% indigo carmine (dissolved in purified water) to a final concentration of 0.2, 0.21, 0.22, 0.25 or 0.3 mg/ml. The prepared solutions were mixed on a roller for 30 min at room temperature and the solubility limit of the dye was determined by visual inspection.

[4] = molecular target: T1, thrombin; assay: Thrombin clotting activity of dyed thrombin formulations (modified European Pharmacopeia Assay 0903/1997); format: biochemical; parameters: measuring thrombin clotting activity in the different formulations
Description: The present study was aimed to determine the effect of dye addition to the fibrin glue formulation on thrombin activity. […] The compatibility of the dyes with thrombin was tested by measuring thrombin clotting activity in the different formulations according to the following modified, European Pharmacopeia Assay (0903/1997), procedure.
(§2) Briefly, standard solution of thrombin (4, 6, 8 and 10 IU/ml) or the test sample were incubated for 2 minutes at 30° C. Then 40 μl thrombin solution of each solution were mixed with 160 μl fibrinogen solution (0.1%; Enzyme research; cat No FIB1 2800L) and clotting time was measured. A calibration curve of log clotting times vs. log thrombin concentration was plotted using the standards. Thrombin activity in the different formulations was determined by the clotting time obtained (calculated automatically by a clotting machine, interpolated from the calibration curve and multiplied by the dilution factor).

[5] = molecular target: T1, thrombin; assay: Thrombin clotting activity of dyed thrombin with or without exposure to day light; format: biochemical; parameters: measuring thrombin clotting activity in the different formulations; settings: 0.02% dye in thrombin solution, uncovered, 6 hours day light
Description: as §2
In the adhesion prevention indications the dye may be added to the thrombin component prior to mixing it with BAC. The present experiment was carried out to assess the effect of visualization agent addition to thrombin solution on thrombin clotting activity. Two dyes were evaluated: Indigo Carmine (IC) and Methylene Blue (MB). […] The effect of the dyes on thrombin activity with or without exposure to day light was assessed. The thrombin clotting activity was measured as indicated above in Example 1. […] The samples were mixed with the same fibrinogen solution and the thrombin activity was calculated from the calibration curve. […]
Thrombin activity and the color intensity (OD of IC at 610 nm and of MB at 663 nm) were measured at TO and after exposure to day light for 6 hours. […]

[6] = dye concentration within the thrombin component 0.01%
[7] = dye concentration within the thrombin component 0.02%
[8] = dye concentration within the thrombin component 0.005%
[9] = dye 0.005% in thrombin component
[10] = dye concentration within the thrombin component 0.05%
[11] = dye concentration within the thrombin component 0.1%
[12] = dye concentration within the thrombin component 0.2%

SMILES: CN(C)c1ccc(N=Nc2ccc(S(=O)(=O)[O-])cc2)cc1.[Na+] [Methyl Orange, Methyl Orange Sodium Salt]
- Migration length [1, 8]: 8.26 cm
- Migration length [1, 6]: 7.6 cm

SMILES: CN(C)c1ccc(C(=C2C=CC(=[N+](C)C)C=C2)c2ccc(N(C)C)cc2)cc1 [Crystal Violet]
- Recovered activity [4, 6]: 106%
- Thrombin Activity [4, 6]: 1125 IU/ml
- Recovered activity [4, 10]: 94%
- Thrombin Activity [4, 10]: 995 IU/ml
- Recovered activity [4, 11]: 49%
- Thrombin Activity [4, 11]: 516 IU/ml
- Recovered activity [4, 12]: 22%
- Thrombin Activity [4, 12]: 234 IU/ml
- Migration length [1, 8]: 12.1 cm
- Migration length [1, 6]: 23.9 cm
- Migration length [1, 10]: >25 cm
- Migration length [2, 9]: 16.3 cm

SMILES: CN(C)c1ccc2nc3ccc(=[N+](C)C)cc-3sc2c1 [Methylene Blue]
- Recovered activity [4, 6]: 92%
- Thrombin Activity [4, 6]: 1018 IU/ml
- Recovered activity [4, 10]: 97%
- Thrombin Activity [4, 10]: 1070 IU/ml
- Recovered activity [4, 11]: 90%
- Thrombin Activity [4, 11]: 991 IU/ml
- Recovered activity [4, 12]: 89%
- Thrombin Activity [4, 12]: 978 IU/ml
- Migration length [1, 11]: 10.7 cm
- Migration length [1, 12]: 14.3 cm
- Migration length ([2]; dye 0.1% in thrombin component): 8.4 cm
- reduction in thrombin activity [5]: about 50%

Second part, the molecule after the results:

- Migration length [1, 6]: 9.7 cm
- Migration length [1, 7]: 11.9 cm
- Migration length ([2]; dye 0.02% in thrombin component): >25 cm
SMILES: Cc1c(C2(c3cc(C(C)C)c(O)c(Br)c3C)OS(=O)(=O)c3ccccc32)cc(C(C)C)c(O)c1Br [Bromothymol Blue]

- Migration length [1, 8]: 11.5 cm
- Migration length [1, 6]: 13.3 cm
- Migration length [1, 7]: 22.9 cm
- Migration length [2, 9]: 19.8 cm
SMILES: Cc1cc2nc3c(=O)[nH]c(=O)nc-3n(C[C@H](O)[C@H](O)[C@H](O)CO)c2cc1C [Riboflavin]

- effect of storage at 2-8 °C ([3]; 0.02% indigo carmine dyed thrombin solution, about 30 min at 2-8 °C): sedimentation
- effect of incubation at room temperature after refrigeration ([3]; 0.02% indigo carmine dyed thrombin solution, after over night incubation at 2-8 °C): re-dissolution of the particulate sample
- result of visual inspection above the solubility limit ([3]; 0.21, 0.22, 0.25 and 0.3 mg/ml in thrombin solution): aggregate formation
- concentration at which complete dissolution of the sample was obtained ([3]; thrombin final container 1,000 IU/ml, 30 min on roller at room temperature): 200 µg/mL
SMILES: O=C1/C(=C2\Nc3ccc(S(=O)(=O)O)cc3C2=O)Nc2ccc(S(=O)(=O)O)cc21 [indigo carmine, Indigotindisulfonate sodium]

- Migration length ([1]; dye dilution 01:26): 12.4 cm
- Migration length ([1]; dye dilution 01:51): 10.2 cm
SMILES: CN(C)c1ccc(/N=N/c2ccccc2C(=O)O)cc1 [Methyl Red, Methyl red]
